Data: paper doi:10.1101/2024.04.25.591105v1 (biorxiv, 2024)

Target: 14-3-3σΔC / ERα phosphopeptide complex (crystals) (Homo sapiens, UniProt P03372+P31947)
Test: X-ray crystallography, soaking
Format: binding
Conditions: ternary complex with Ac-ERα phosphopeptide

14-3-3σΔC / ERα phosphopeptide complex (crystals), sequence (P31947 1-231, stated change not applied, other chains not shown): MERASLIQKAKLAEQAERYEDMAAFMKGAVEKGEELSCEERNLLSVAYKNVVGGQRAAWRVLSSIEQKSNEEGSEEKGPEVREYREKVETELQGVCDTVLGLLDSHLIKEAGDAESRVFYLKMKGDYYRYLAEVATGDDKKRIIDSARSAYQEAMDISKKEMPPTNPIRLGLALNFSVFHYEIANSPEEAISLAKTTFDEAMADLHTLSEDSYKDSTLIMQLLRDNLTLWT

Row | SMILES | X-ray crystallography, soaking
1 | C=CC(C)(C)OC[C@H]1O[C@H](O[C@@H]2C3=C([C@H](C)CNC(C)=O)C[C@H](O)[C@]3(C)/C=C3\[C@@H](COC)CC[C@H]3[C@@H](C)[C@H]2O)[C@H](O)[C@@H](O)[C@@H]1O [FC-NAc] | 8BZH (FC-NAc)
2 | COC[C@H]1CC[C@@H]2/C1=C/[C@]1(C)C(=C([C@H](C)CNC(C)=O)C[C@@H]1O)[C@@H](O)[C@H](O)[C@@H]2C [FC-NAg] | 8BZT (FC-NAg)
